The source of these data is BindingDB's records for doi:10.1021/jm049651m (Uppsala University, 2004).

Bridge positions count the residues as written; N and C are the ends. Square brackets hold non-standard residues; d marks the D form. Peptide text beside a SMILES is read from it. hCys = N[C@@H](CCS)C(=O)O

The assay deals with Type-2 angiotensin II receptor (Sus scrofa). Kind of assay: Displacement of [125I]-Ang II from pig uterus myometrium angiotensin II type 2 (AT2) receptor. (Loss of bound radioactivity is the signal in a displacement assay; it reports binding, not function.)

Broadly, the Ki is the equilibrium dissociation constant of an inhibitor or competing ligand from its target. Read a high Ki as lower affinity.

On to `NC(N)=NCCC[C@H](NC(=O)[C@@H](N)CC(=O)O)C(=O)N[C@H]1CCSSCC[C@@H](C(=O)N[C@@H](Cc2c[nH]cn2)C(=O)N2CCC[C@H]2C(=O)N[C@@H](Cc2ccccc2)C(=O)O)NC(=O)[C@H](Cc2ccc(O)cc2)NC1=O` [c[Hcy3,5]Ang II] (H-DR[hCys]Y[hCys]HPF-OH; disulfide 3-5), for which the affinity corresponds to a Ki of 2.1 nM.
